Measurements: PMC2685009, “Identification and Characterization of Inhibitors of Human Apurinic/apyrimidinic Endonuclease APE1” (PLoS ONE, 2009)
Where two headings read alike, the source gives them in different places.

How the values were obtained:
APE1 [1] = biological target: T1, APE1 (Homo sapiens, UniProt P27695); experiment: qHTS fluorogenic AP site incision assay (TAMRA/BHQ-2 red substrate, 1536-well); type: biochemical
T1 construct: made in house
Procedure: Recombinant human APE1 and E. coli EndoIV were purified as previously described. Deoxyoligonucleotides containing a tetrahydrofuran (THF) AP site analog, carboxytetramethyl rhodamine (TAMRA), or Black Hole Quencher-2 (BHQ-2), as appropriate (see Figure 1), were purchased from Biosearch Technologies, Inc., (Novato, CA). To create double-stranded DNA substrates, equal volumes of 200 µM solutions of the respective strands in reaction buffer were mixed and incubated at 95°C for 5 min. The annealing mixture was allowed to cool gradually to room temperature. Annealing and assay experiments were performed in the following buffer: 50 mM Tris pH 7.5, 25 mM NaCl, 2 mM MgCl2, 1 mM DTT, 0.01% Tween-20.
Initial optimizations were carried out in 384-well format at a 40 µL total reaction volume. Briefly, 30 µL of APE1 were pipetted into the plate and incubated at room temperature for 10 min; subsequently, 10 µL of substrate were added to start the reaction. The final assay concentrations of the enzyme and substrate were 0.75 nM and 50 nM, respectively. Kinetic fluorescence data were collected on a ViewLux high-throughput CCD imager (Perkin Elmer, Waltham, MA) equipped with standard FITC (excitation filter 480 nm and emission filter 530 nm) or BODIPY (excitation filter 525 nm and emission filter 598 nm) optics.
Three µl of reagents (buffer in columns 3 and 4 as negative control and APE1 in columns 1, 2, 5–48) were dispensed into a 1536-well plate. Compounds (DMSO solutions) and control (DMSO only) (23 nL) were transferred via Kalypsys pintool equipped with 1536-pin array. The plate was incubated for 15 min at room temperature, and then 1 µL of substrate (50 nM final concentration) was added to start the reaction. Library plates were screened from the lowest to highest concentration.
Screening data were corrected and normalized, and concentration–effect relationships were derived by using in-house developed, publicly available algorithms (http://www.ncgc.nih.gov/pub/openhts/curvefit/). Percent activity was computed after normalization against the uninhibited, or neutral, control (64 wells, entire columns 1 and 2) and the no-enzyme, or 100% inhibited, control (64 wells, entire columns 3 and 4), respectively. A four parameter Hill equation was fitted to the concentration-response data by minimizing the residual error between the modeled and observed responses.

APE1 [2] = biological target: T1, APE1; experiment: Radiotracer (32P, gel-based) incision assay; type: biochemical; details: for Gel: inhibition detected or not in radiotracer incision assay: APE1, 32P-labeled THF substrate
[3] = biological target: unlabeled double-stranded DNA substrate; experiment: ThO dye-displacement assay (DNA binding); details: for IC50: 50 nM DNA, 250 nM ThO; for ThO displacement (in words): LOPAC dose-response profiling
E. coli EndoIV = biological target: T2, E. coli EndoIV (Escherichia coli, UniProt P0A6C1); experiment: E. coli Endonuclease IV (EndoIV) profiling assay; type: biochemical
T2 construct: made in house
Procedure: EndoIV enzyme and substrate (same as that used with APE1) optimization tests were initially performed at a 40 µL final volume in a 384-well format. Reaction concentrations of 2 nM EndoIV and 50 nM DNA substrate were selected for subsequent experiments. For running the assay in 1536-well format, the same protocol as described for APE1 above was followed.

[4] = system: AP site cleavage activity of HEK 293T whole cell extract; experiment: Whole cell extract AP endonuclease activity assay (HEK 293T); type: biochemical, human; details: inhibitor at 100 µM
Procedure: (§1) The radiotracer assay was performed essentially as described. In brief, prioritized candidate inhibitor compounds from the qHTS assay were incubated at various concentrations (100 µM data shown) with APE1 (100 pg) at room temperature for 15 min in 25 mM Tris pH 7.5, 25 mM NaCl, 1 mM MgCl2, 1 mM DTT and 0.01% Tween-20. At that time, 0.5 pmol ^32P-radiolabeled THF-containing 34 mer double-stranded DNA substrate was added. Incision reactions were then carried out immediately at 37°C for 10 min in a final volume of 10 µL. After the addition of an equal volume of stop buffer (0.05% bromophenol blue and xylene cynol, 20 mM EDTA, 95% formamide), the radiolabeled substrate and product were separated on a standard polyacrylamide denaturing gel and quantified by phosphorimager analysis.
(§2) HEK 293T or HeLa cells – maintained in DMEM with 10% fetal bovine serum and 1% Penicillin-Streptomycin – were harvested, washed with 1× PBS, re-suspended in cold 222 mM KCl, incubated on ice for 30 min, and clarified by centrifugation at 12,000×g for 15 min at 4°C [23]. The supernatant (whole cell extract) was retained, the protein concentration determined using the Bio-Rad Bradford reagent, and aliquots were stored at −80°C. AP endonuclease activity assays were performed with or without candidate inhibitor compounds as described above, except 60 ng HEK 293T or 80 ng of HeLa whole cell extract was used.

[5] = system: AP site cleavage activity of HeLa whole cell extract; experiment: Whole cell extract AP endonuclease activity assay (HeLa); type: biochemical, human; details: inhibitor at 100 µM
Procedure: as §1, §2

HeLa cells [6] = experiment: Cell-based colony survival assay with MMS; design: species or system human; details: HeLa colony formation, 0.25 mM MMS, 1 or 5 µM inhibitor
Procedure: To measure colony survival, HeLa cells were plated in 6-well plates 12–20 hr prior to treatment. Cells were treated as follows: (i) exposed only to control medium, (ii) exposed to 0.25 mM MMS alone for 1 hr, (iii) exposed to 1 or 5 µM of the indicated inhibitor compound alone for 4 hr, or (iii) exposed to inhibitor compound alone for 3 hr and then with MMS for an additional 1 hr at 37°C. Following treatment, cells were washed once with 1× PBS and incubated in regular maintenance media (DMEM, 10% FBS) at 37°C for 10–15 days. Colonies formed were fixed in methanol, stained in methylene blue (Sigma), and counted to determine percent survival relative to the untreated controls.

HeLa cells [7] = experiment: AP site measurement in chromosomal DNA; type: cell-based, human; details: for AP site damage, inhibitor alone: 5 µM inhibitor alone, relative to control cells; for AP site damage, inhibitor plus MMS: 5 µM inhibitor plus MMS
Procedure: HeLa cells were treated as above, except only at 5 µM inhibitor where indicated. Following exposure, chromosomal DNA was isolated and steady-state AP site levels were measured using the DNA Damage Quantification Kit from Dojindo Molecular Technologies, Inc. (Gaithersburg, MD) as previously described.

[8] = design: method as in PMID 18042731; details: cited from earlier work
[9] = 50 nM substrate, 0.75 nM APE1, read-out: qHTS IC50 (primary screen, APE1)
[10] = 2 nM EndoIV, 50 nM substrate, read-out: Endo IV IC50 (E. coli EndoIV profiling)
[11] = range of inhibitor concentrations, data not shown, read-out: approximate IC50 in radiotracer assay

T1 sequence (P27695 whole entry): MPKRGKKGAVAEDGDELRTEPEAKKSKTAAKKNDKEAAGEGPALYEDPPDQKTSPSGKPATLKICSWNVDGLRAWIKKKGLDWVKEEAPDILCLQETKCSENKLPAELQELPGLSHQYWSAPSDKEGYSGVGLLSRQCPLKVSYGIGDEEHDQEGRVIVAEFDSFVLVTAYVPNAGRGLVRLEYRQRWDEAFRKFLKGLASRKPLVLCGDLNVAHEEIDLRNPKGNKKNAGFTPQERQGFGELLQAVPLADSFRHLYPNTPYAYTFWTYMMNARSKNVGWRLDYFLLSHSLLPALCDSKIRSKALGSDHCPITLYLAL

Row | Structure (SMILES) | IC50 (APE1 [1]; [9]) | Gel: inhibition detected or not in radiotracer incision assay (APE1 [2]) | IC50 [3] | activity against EndoIV compared with APE1 (in words) (E. coli EndoIV) | IC50 (E. coli EndoIV; [10]) | ThO displacement (in words) [3] | IC50 (APE1 [2]; [11]) | inhibition of total AP site cleavage activity [4] | inhibition of total AP site cleavage activity [5] | further results
1 | O=C(O)C1=CC(=C(c2ccc(O)c(C(=O)O)c2)c2ccc(O)c(C(=O)O)c2)C=CC1=O [aurintricarboxylic acid] | 55 nM | Yes | 1300 nM | completely inactive or weakly active | 25000 nM |  |  |  |  | APE1 inhibition in fluorogenic assay (in words) (APE1 [1]): low nanomolar range
2 | Cn1cc(NC(=O)c2cc(NC(=O)c3cc(NC=O)cn3C)cn2C)cc1C(=O)NCCC(=N)N [distamycin] |  |  |  |  |  | strong displacement activity |  |  |  | 
3 | COc1cccc2c1C(=O)c1c(O)c3c(c(O)c1C2=O)C[C@@](O)(C(=O)CO)C[C@@H]3O[C@H]1C[C@H](N)[C@H](O)[C@H](C)O1 [doxorubicin] |  |  |  |  |  | strong ThO displacement profiles |  |  |  | 
4 | Cc1nc(N=Nc2cc(S(=O)(=O)O)c3cc([N+](=O)[O-])cc(S(=O)(=O)O)c3c2)c(COP(=O)(O)O)c(C=O)c1O [PPNDS tetrasodium] | 2800 nM | No | 10000 nM |  | 16000 nM |  | > 50000 nM |  |  | 
5 | CC(=O)OCC1=C(C(=O)O)N2C(=O)[C@@H](NC(=O)CSc3ccncc3)[C@H]2SC1 [cephapirin sodium] | 8900 nM | No | > 57000 nM | similarly potent against each endonuclease | 16000 nM |  | > 50000 nM |  |  | 
6 | N#C/C(=C\c1ccc(O)c(O)c1)C(=O)c1ccc(O)c(O)c1 [Tyrphostin AG 538] | 280 nM | Yes | 20000 nM | similarly potent against each endonuclease | 280 nM | weak or no displacement activity | 500 to 2000 nM | mild inhibition | mild inhibition | 
7 | CO/N=C(\C(=O)N[C@@H]1C(=O)N2C(C(=O)O)=C(CSc3nc(=O)c(=O)[nH]n3C)CS[C@H]12)c1csc(N)n1 [ceftriaxone sodium] | 2200 nM | No | > 57000 nM |  | 11000 nM |  | > 50000 nM |  |  | 
8 | CC(=O)[C@]1(O)Cc2c(O)c3c(c(O)c2[C@@H](O[C@H]2C[C@H](N)[C@H](O)[C@H](C)O2)C1)C(=O)c1ccccc1C3=O [idarubicin] |  |  |  |  |  | strong ThO displacement profiles |  |  |  | 
9 | Nc1c(S(=O)(=O)O)cc(Nc2ccc(Nc3nc(Cl)nc(Nc4cccc(S(=O)(=O)O)c4)n3)c(S(=O)(=O)O)c2)c2c1C(=O)c1ccccc1C2=O [Reactive Blue 2] | 250 nM | Yes | 8900 nM | completely inactive or weakly active | 10000 nM |  | < 500 nM | ≥ 80% | ≥ 80% | percent cell killing, MMS plus inhibitor relative to alkylator or inhibitor alone (HeLa cells [6]): greater than additive increase; AP site damage, inhibitor alone (HeLa cells [7]): increased AP site damage relative to the control cells; AP site damage, inhibitor plus MMS (HeLa cells [7]): potentiated the genotoxic potential of MMS
10 | NC(Cc1cc(O)c(O)cc1O)C(=O)O (racemic) [6-hydroxy-DL DOPA, 6-hydroxy-DL-DOPA] |  | Yes | 7900 nM | completely inactive or weakly active |  |  |  | complete inhibition | complete inhibition | IC50 (APE1 [1]): 110 nM; IC50 (APE1 [2]): < 500 nM; IC50 (E. coli EndoIV): 10000 nM; percent cell killing, MMS plus inhibitor relative to alkylator or inhibitor alone (HeLa cells [6]): greater than additive increase; AP site damage, inhibitor alone (HeLa cells [7]): increased AP site damage relative to the control cells; AP site damage, inhibitor plus MMS (HeLa cells [7]): potentiated the genotoxic potential of MMS
11 | O=C1c2c(O)ccc(O)c2C(=O)c2c(NCCNCCO)ccc(NCCNCCO)c21 [mitoxantrone] | 2000 nM | Yes | 350 nM | similarly potent against each endonuclease | 2000 nM | positive | < 500 nM |  |  | 
12 | C=C/C(C)=C/[C@@]1(C)SC(=O)C(C)=C1O [thiolactomycin] | 1000 nM | Yes | > 57000 nM | completely inactive or weakly active | 20000 nM | weak or no displacement activity | 500 to 2000 nM | no effect | no effect | ThO displacement (in words) ([3]; listed as Thiolactomycin): does not affect ThO displacement
13 | O=C(O)c1cc[c]([Sb](=[O])([OH])[OH])cc1[N+](=O)[O-] [NSC-13755] |  |  |  |  |  |  |  | complete inhibition | complete inhibition | outcome in cell-based experiments [8]: fail in cell-based experiments
14 | CN(N=O)c1ccc(O)c(O)c1 [methyl 3,4-dephostatin, methyl-3,4-dephostatin] | 500 nM | Yes | 14000 nM | completely inactive or weakly active | 8900 nM |  | 500 to 2000 nM | no effect | no effect | 
